Measurements reported in ChEMBL document CHEMBL5113369, “A review on the structure and pharmacological activity of phenylethanoid glycosides” (Eur J Med Chem, 2021).

What was measured:
Format in all cases: ADME, organism-based, Canis lupus familiaris
Conditions in all cases: in vivo, dose 10-40 mg/kg
[1] = Oral bioavailability in Beagle dog at 10 to 40 mg/kg measured up to 8 hrs by LC-MS/MS analysis
[2] = Tmax in Beagle dog at 10 to 40 mg/kg, po measured up to 8 hrs by LC-MS/MS analysis
[3] = Half life in Beagle dog at 10 to 40 mg/kg, po measured up to 8 hrs by LC-MS/MS analysis

bioavailability [1]: 4%
Tmax [2]: 30 min
half-life [3]: 90 min
Structure (SMILES): C[C@@H]1O[C@@H](O[C@@H]2[C@@H](O)[C@H](OCCc3ccc(O)c(O)c3)O[C@H](CO)[C@H]2OC(=O)/C=C/c2ccc(O)c(O)c2)[C@H](O)[C@H](O)[C@H]1O [ACETOSIDE]
